Patent publication US20160304461A1, “QUINOLONE COMPOUND AND PHARMACEUTICAL COMPOSITION” (OTSUKA PHARMACEUTICAL CO., LTD., priority 2007, published 2016)

Structure (SMILES)	melting point
CCCOc1ccc(F)c2c(=O)c(-c3ccc(Cl)cc3Cl)c[nH]c12 [Example 10, 3-(2,4-Dichlorophenyl)-5-fluoro-8-propoxy-1H-quinolin-4-one]	256 to 259 °C
COc1ccc(-c2c[nH]c3c(N4CCCC4)ccc(F)c3c2=O)cc1 [Example 18, 5-Fluoro-3-(4-methoxyphenyl)-8-pyrrolidin-1-yl-1H-quinolin-4-one]	100 to 105 °C
CCCOc1ccc(F)c2c(=O)c(-c3ccc(OC)cc3)c(C(C)C)[nH]c12 [Example 83, 5-Fluoro-2-isopropyl-3-(4-methoxyphenyl)-8-propoxy-1H-quinolin-4-one]	195 to 197 °C
COc1ccc(-c2c[nH]c3c(Br)ccc(F)c3c2=O)cc1 [Example 22, 8-Bromo-5-fluoro-3-(4-methoxyphenyl)-1H-quinolin-4-one]	134 to 135 °C
CCCOc1ccc(F)c2c(=O)c(-c3ccc(C(=O)N4CCOCC4)cc3)c[nH]c12 [Example 90, 5-Fluoro-3-[4-(morpholine-4-carbonyl)phenyl]-8-propoxy-1H-quinolin-4-one]	234 to 236 °C
CCCOc1ccc(F)c2c(=O)c(-c3ccccc3OC)c[nH]c12 [Example 7, 5-Fluoro-3-(2-methoxyphenyl)-8-propoxy-1H-quinolin-4-one]	193 to 195 °C
COc1ccc(-c2c[nH]c3c(C(=O)N4CCCC4)ccc(F)c3c2=O)cc1 [Example 23, 5-Fluoro-3-(4-methoxyphenyl)-8-(pyrrolidin-1-carbonyl)-1H-quinolin-4-one]	236 to 237 °C
CCCOc1ccc(F)c2c(=O)c(-c3ccc(N(C)C)cc3)c(C(F)(F)F)[nH]c12 [Example 79, 3-(4-Dimethylaminophenyl)-5-fluoro-8-propoxy-2-trifluoromethyl-1H-quinolin-4-one]	176 to 177 °C
CCCOc1ccc(F)c2c(=O)c(-c3ccc(C(=O)N(C)C)cc3)c[nH]c12 [Example 57, 4-(5-Fluoro-4-oxo-8-propoxy-1,4-dihydroquinolin-3-yl)-N,N-dimethylbenzamide]	235 to 237 °C
CCCOc1ccc(F)c2c(=O)c(-c3ccc(OC)cc3OC)c(C)[nH]c12 [Example 75, 3-(2,4-Dimethoxyphenyl)-5-fluoro-2-methyl-8-propoxy-1H-quinolin-4-one]	100 to 101 °C
CCCOc1ccc(F)c2c(=O)c(-c3ccc(OC)cc3O)c[nH]c12 [Example 98, 5-Fluoro-3-(2-hydroxy-4-methoxyphenyl)-8-propoxy-1H-quinolin-4-one]	208 to 209 °C
CCCOc1ccc(F)c2c(=O)c(-c3ccc(OC)cc3)c(CC)[nH]c12 [Example 48, 2-Ethyl-5-fluoro-3-(4-methoxyphenyl)-8-propoxy-1H-quinolin-4-one]	169 to 171 °C
CCCOc1ccc(F)c2c(=O)c(-c3ccco3)c(C(F)(F)F)[nH]c12 [Example 78, 5-Fluoro-3-furan-2-yl-8-propoxy-2-trifluoromethyl-1H-quinolin-4-one]	134 to 136 °C
CCCOc1ccc(F)c2c(=O)c(-c3ccc(OC(C)C)cc3OC)c[nH]c12 [Example 20, 5-Fluoro-3-(4-isopropoxy-2-methoxyphenyl)-8-propoxy-1H-quinolin-4-one]	113 to 115 °C
CCCOc1ccc(F)c2c(=O)c(-c3ccc(C(C)=O)cc3)c[nH]c12 [Example 54, 3-(4-Acetylphenyl)-5-fluoro-8-propoxy-1H-quinolin-4-one]	180 to 181 °C
CCCOc1ccc(F)c2c(=O)c(-c3ccncc3)c[nH]c12 [Example 51, 5-Fluoro-8-propoxy-3-pyridin-4-yl-1H-quinolin-4-one]	259 to 261 °C

Structure (SMILES)	melting point
CCCOc1ccc(F)c2c(=O)c(-c3ccc(C(=O)N4CCCC4)cc3)c[nH]c12 [Example 56, 5-Fluoro-8-propoxy-3-[4-(pyrrolidine-1-carbonyl)phenyl]-1H-quinolin-4-one]	236 to 237 °C
CCCOc1ccc(F)c2c(=O)c(-c3cccnc3)c(C)[nH]c12 [Example 68, 5-Fluoro-2-methyl-8-propoxy-3-pyridin-3-yl-1H-quinolin-4-one]	190 to 192 °C
COc1ccc(-c2c[nH]c3c(OCCCNC(C)=O)ccc(F)c3c2=O)cc1 [Example 26, N-{3-[5-Fluoro-3-(4-methoxyphenyl)-4-oxo-1,4-dihydroquinolin-8-yloxy]propyl}acetamide]	229 to 231 °C
COc1ccc(-c2c[nH]c3c(OC(C)(C)C)ccc(F)c3c2=O)cc1 [Example 42, 8-tert-Butoxy-5-fluoro-3-(4-methoxyphenyl)-1H-quinolin-4-one]	206 to 208 °C
CCCOc1ccc(Cl)c2c(=O)c(-c3ccc(OC)cc3)c[nH]c12 [Example 103, 5-Chloro-3-(4-methoxyphenyl)-8-propoxy-1H-quinolin-4-one]	194 to 196 °C
O=c1c(-c2ccc(O)cc2)c[nH]c2c(O)ccc(F)c12 [Example 96, 5-Fluoro-8-hydroxy-3-(4-hydroxyphenyl)-1H-quinolin-4-one]	303 to 305 °C (dec.)
CCCOc1ccc(F)c2c(=O)c(-c3ccc(N(C)C)cc3)c(C)[nH]c12 [Example 73, 3-(4-Dimethylaminophenyl)-5-fluoro-2-methyl-8-propoxy-1H-quinolin-4-one]	255 to 257 °C
COc1ccc(-c2c[nH]c3c(OC4CCCC4)ccc(Br)c3c2=O)cc1 [Example 104, 5-Bromo-8-cyclopentyloxy-3-(4-methoxyphenyl)-1H-quinolin-4-one]	213 to 215 °C
CCCOc1ccc(F)c2c(=O)c(-c3ccc(Oc4ccccc4)cc3)c[nH]c12 [Example 52, 5-Fluoro-3-(4-phenoxyphenyl)-8-propoxy-1H-quinolin-4-one]	228 to 230 °C
CCCOc1ccc(F)c2c(=O)c(-c3ccc(F)cc3)c(C)[nH]c12 [Example 74, 5-Fluoro-3-(4-fluorophenyl)-2-methyl-8-propoxy-1H-quinolin-4-one]	196 to 197 °C
CCCOc1ccc(F)c2c(=O)c(-c3cccs3)c(C(F)(F)F)[nH]c12 [Example 85, 5-Fluoro-8-propoxy-3-thiophen-2-yl-2-trifluoromethyl-1H-quinolin-4-one]	149 to 150 °C
CCOc1ccc(F)c2c(=O)c(-c3ccc(Cl)cc3Cl)c[nH]c12 [Example 13, 3-(2,4-Dichlorophenyl)-8-ethoxy-5-fluoro-1H-quinolin-4-one]	236 to 237 °C
CCCOc1ccc(F)c2c(=O)c(-c3ccc(OC)cc3OC)c[nH]c12 [Example 8, 3-(2,4-Dimethoxyphenyl)-5-fluoro-8-propoxy-1H-quinolin-4-one]	116 to 118 °C
CCCOc1ccc(F)c2c(=O)c(-c3ccc(OC)cc3C)c[nH]c12 [Example 16, 5-Fluoro-3-(4-methoxy-2-methylphenyl)-8-propoxy-1H-quinolin-4-one]	197 to 199 °C
CCCOc1ccc(F)c2c(=O)c(-c3ccc(O)cc3OC)c[nH]c12 [Example 97, 5-Fluoro-3-(4-hydroxy-2-methoxyphenyl)-8-propoxy-1H-quinolin-4-one]	251 to 253 °C
CCCOc1ccc(F)c2c(=O)c(-c3ccc(OC(F)(F)F)cc3)c[nH]c12 [Example 5, 5-Fluoro-8-propoxy-3-(4-trifluoromethoxyphenyl)-1H-quinolin-4-one]	212 to 214 °C
